Test results reported in PMC5587727 (Nucleic Acids Research, 2017).

Target: hDcp2 (Homo sapiens, UniProt Q8IU60)
Assay: In vitro RNA decapping assay with hDcp2
Assay type: biochemical
Settings: RNA capped with the analogue; 15 min incubation; 100 ng capped RNA, 630 nM hDcp2

Decapping susceptibility (% of RNA decapping)	Compound
74 ± 3%	CO[C@H]1[C@@H](O)[C@H]([n+]2cn(C)c3c(=O)[nH]c(N)nc32)O[C@@H]1COP(=O)([O-])OP(=O)(O)OP(=O)(O)OC[C@H]1O[C@@H](n2cnc3c(=O)[nH]c(N)nc32)[C@H](O)[C@@H]1O [m2^7,3′-OGpppG]
82 ± 2%	Cn1c[n+]([C@@H]2O[C@H](COP(=O)(O)OP(=O)([O-])OP(=O)(O)OC[C@H]3O[C@@H](n4cnc5c(=O)[nH]c(N)nc54)[C@H](O)[C@@H]3O)[C@@H](O)[C@H]2O)c2nc(N)[nH]c(=O)c21 [m^7GpppG]
